The text below walks through data of ChEMBL document CHEMBL4414583, “Octahydro-Protoberberine and Protoemetine-Type Alkaloids from the Stems of Alangium salviifolium and Their Cytotoxicity” (J Nat Prod, 2019).

As a reminder, the IC50 is the concentration at which inhibition is half-maximal.

Holding throughout (format): functional, cell-based
One test concerns A549. Briefly: Cytotoxicity against human A549 cells assessed as reduction in cell viability incubated for 72 hrs by MTT assay. The note with it: A549, 72 h.
A further test has as its system SK-OV-3. Nature of the test: Cytotoxicity against human SKOV3 cells assessed as reduction in cell viability incubated for 72 hrs by MTT assay. The following applies: SK-OV-3, 72 h. For orientation: Tetrazolium dyes change colour on reduction, which living cells bring about.
For a further test, the system named is HeLa. Briefly: Cytotoxicity against human HeLa cells assessed as reduction in cell viability incubated for 72 hrs by MTT assay.

SMILES strings stand for the structures. Some results are limits rather than exact numbers.

Regarding `CC[C@H]1CN2CCc3cc(OC)c(O)cc3[C@@H]2C[C@@H]1CCO`, the values for the 50% inhibitory concentration (IC50) in the test on A549, in the test with SK-OV-3 and in the test on HeLa were 200 nM, 60 nM and 10 nM, respectively.
The like results for `COc1cc2c(cc1O)[C@@H]1C[C@@H]3CC=CC[C@H]3CN1CC2` were, in that order, 12500 nM, 13900 nM and 9200 nM.
For `CC[C@H]1CN2CCc3c(cc(OC)c(OC)c3O)[C@@H]2C[C@@H]1C/C=[N+](/[O-])CC`, in that order: > 10000 nM, 5200 nM and > 10000 nM.
With `CC[C@H]1CN2CCc3cc(OC)c(OC)cc3[C@@H]2C[C@@H]1C[C@H]1NCCc2cc(O)c(OC)cc21` [CEPHAELINE], the concentration for half-maximal inhibition (IC50) is 3000 nM in the test with A549, 100 nM in the test with SK-OV-3 and 7600 nM in the test on HeLa.
Regarding `CC[C@H]1CN2CCc3cc(OC)c(OC)cc3[C@@H]2C[C@@H]1C[C@H]1NCCc2c1[nH]c1ccccc21`, the values for the IC50 in the test on SK-OV-3 and in the test with HeLa were 3 nM and 100 nM, respectively.
`CC[C@H]1CN2CCc3cc(OC)c(OC)cc3[C@@H]2C[C@@H]1C[C@@H]1NCCc2cc(O)c(OC)cc21` [ISOCEPHAELINE]: the values for the half-inhibitory concentration (IC50) in the test on A549, in the test on SK-OV-3 and in the test on HeLa were 2700 nM, 3900 nM and 9400 nM, respectively.
As to `CC[C@H]1CN2CCc3c(cc(OC)c(OC)c3O)[C@@H]2C[C@@H]1CCO`, the IC50 with A549 amounted to 2100 nM; in the test with SK-OV-3, 3600 nM; with HeLa, 5300 nM.
On to `CC[C@H]1CN2CCc3cc(OC)c(OC)cc3[C@@H]2C[C@@H]1CCO`, for which the half-inhibitory concentration (IC50) came to 300 nM with A549, 100 nM in the test with SK-OV-3 and 1200 nM in the test with HeLa.
In the case of `CC[C@H]1CN2CCc3c(cc(OC)c(OC)c3O)[C@@H]2C[C@@H]1C[C@H]1NCCc2c1[nH]c1ccccc21`, the IC50 in the test on A549 was 3000 nM; in the test on SK-OV-3, 200 nM; with HeLa, 8200 nM.
Regarding `CC[C@H]1CN2CCc3cc(OC)c(OC)cc3[C@@H]2C[C@@H]1C[C@H]1NCCc2c1[nH]c1ccc(O)cc21` [TUBULOSINE], the IC50 is 2100 nM with A549, 400 nM in the test on SK-OV-3 and > 10000 nM in the test with HeLa.
The like results for `CO[C@@H]1C=C[C@@]23c4cc5c(cc4CN(C[C@@H]2O)[C@H]3C1)OCO5` [(+)-HAEMANTHAMINE] were, in that order, 3000 nM, 3700 nM and 1300 nM.
